Measured values as given in patent US20150031739A1, “PANOBINOSTAT FOR USE IN THE TREATMENT OF HIV-1” (Aarhus Universitet, priority 2012, published 2015).

Experiments:
CCR5 = details: monocytes; cited from earlier work
CXCR4 = details: CD4+ T-cells; cited from earlier work
[1] = tested on: HIV-1 expression in ACH2 cells; test: HIV-1 activation from ACH2 cells (p24 gag ELISA); assay type: cell-based; details: 48 hours
Experimental: (§1) HIV-1 activation from ACH2 cells: ACH2 cells (obtained through the NIH AIDS Reagent Program) are seeded at 1*10^5/well in a 96-well format in 100 uL RPMI media supplemented with 10% heat inactivated Foetal Bovine Serum and 1% penicillin/streptomycin. HDACi and PMA as positive control is added at desired concentrations in 100 uL. Identical DMSO levels is used for untreated control. All stimulations are performed in triplicate. 48 hours later supernatant is harvested and left for inactivation in 1% Empegen for 1 hour. Samples are diluted 1/500 and levels of HIV-1 p24 gag is determined by ELISA as described by the manufacturer (Aalto Bioreagents, Dublin, Ireland).

[2] = tested on: HIV-1 expression in U1 cells; test: HIV-1 activation from U1 cells (p24 gag ELISA); assay type: cell-based; details: 48 hours
Experimental: as §1, with “U1” for “ACH2”, “2*10^5/well” for “1*10^5/well”, “Levels” for “Samples are diluted 1/500 and levels”, “gag levels” for “gag”

[3] = tested on: latently infected cell lines (U1 and ACH2); test: HIV-1 expression from latently infected cell lines, statements for both lines; assay type: cell-based
Experimental: as §1, with “U1” for “ACH2”, “2*10^5/well” for “1*10^5/well”, “Levels” for “Samples are diluted 1/500 and levels”, “gag levels” for “gag”
as §1

[4] = tested on: CD69 expression in CD4+ T-cells; test: Activation of primary T lymphocytes (CD69 expression, flow cytometry); assay type: cell-based, human; details: 16 hours
Experimental: Expression of the early activation marker CD69 was assessed by flow cytometry in 8 separate experiments with data from one representative experiment shown in figure.
Activation of primary T lymphocytes: PBMC's are purified using Ficoll Paque gradient centrifugation from fresh blood obtained from healthy donors. 5*10^5 cells are stimulated by different concentrations of HDACi in final volume of 500 uL RPMI media supplemented with 10% heat inactivated Foetal Bovine Serum and 1% penicillin/streptomycin. After 16 hours cells are harvested and washed once in PBS. Cells are stained with Live-dead near IR at a final concentration of 2 uM (Invitrogen, Denmark) for 30 min on ice. Cells are washed twice in PBS. Five uL Fc Block (Sigma, Denmark) at 10 mg/mL is added and cells are incubated 10 min on ice. Cells are subsequently stained with 5 uL CD4 PerCPCy5.5, 5 uL CD27 PE-Cy7, 7 uL CD45RA FITC, 20 uL CCR7 PE all (BD, USA) and 10 uL CD69 APC (BioLegend, USA) for 30 min on ice. Lastly, cells are washed once in PBS and resuspended in FACS flow buffer and stored on ice until analysis by flow cytometry.

CD4+ T cells = test: CD4+ T cell counts in blood during panobinostat treatment; assay type: in vivo, human; details: intermittent dosing over 51 days, 20 mg oral TIW every other week, HIV-1 patients on HAART
Experimental: Measurement of CD4+ T cell counts was performed by flow cytometry as part of routine diagnostics evaluation of HIV-1 patients.

Cytotoxicity of LBH589 = assay type: cell-based; details: up to 30 nM
[5] = tested on: cell-associated unspliced HIV RNA; test: Cell associated unspliced Gag HIV RNA in CD4+ T cells of treated patients; assay type: in vivo, HIV-1
Experimental: RNA purified from 1 million CD4+ T cells was treated with DNAse and split in 4 portions. Preparation of cDNA was performed by Superscript III Reverse Transcriptase as described by the manufacturer using both Oligo dT and random hexamer priming (Life Technologies, DK). Each cDNA sample was assayed in duplicate in a semi-nested real-time PCR quantification yielding eight replicates for each patient sample.
First round amplification was carried out with primers 5′-[…]-3′ (SEQ ID NO: 1) and 5′-[…]-3′ (SEQ ID NO: 2) with AmpliTaq gold mastermix (Life Technologies, DK) for a limited 15 cycles and input of 5 uL cDNA.
PCR conditions were as follows: A denaturation step at 95° C. for 10 minutes followed by 15 cycles of 20 seconds at 94° C., 40 seconds at 55° C. and 40 seconds at 72° C. Second round real-time PCR was performed using SYBR green mastermix (Life Technologies, DK) and primers 5′-[…]-3′ (SEQ ID NO: 3) and 5′-[…]-3′ (SEQ ID NO: 4) on a Bio-Rad CFX96™ Real-time PCR Platform. PCR conditions were as follows: A denaturation step at 95° C. for 10 minutes followed by 45 cycles of 20 seconds at 94° C., 40 seconds at 55° C., 40 seconds at 72° C. Subsequently, a dissociation curve was obtained by heating from 65° C. to 95° C. with a 0.5° C. increment for 5 seconds. A serial diluted standard allow for relative quantification of HIV Gag RNA levels.

histone H3 acetylation = test: Histone H3 acetylation in PBMC's of patients during panobinostat administration; assay type: in vivo, human
Experimental: One million freshly isolated PBMC's harvested from CPT vacutainers (BD Bioscience, UK) were washed in ice-cold PBS with 1% FBS. Subsequently cells were fixed in 200 uL 1% paraformaldehyde for 15 min on ice and afterwards washed in PBS. […] Following a wash in FACS buffer (PBS/2% FBS), cells were blocked in PBS with 10% FBS for 20 min at RT. For each patient one sample was incubated for 1 hr at RT with either 5 uL primary anti-acetyl histone H3 antibody (Millipore, DK) or 5μ isotype control (final antibody concentration: 10 μg/m). Subsequently, cells were washed in FACS buffer and incubated with 5 uL secondary (Alexa-Flour 488 donkey anti-rabbit IgG from Life Technologies, DK) for 1 hr in the dark at RT (final antibody concentration: 6 μg/m). Lastly, cells were washed in FACS buffer, resuspended in PBS and analyzed on a FACS Canto II.

[6] = tested on: HIV proviral DNA in CD4+ T cells; test: Total HIV proviral DNA in purified CD4+ T cells of treated patients; assay type: in vivo, HIV-1
Experimental: DNA was isolated from 1×10^6 CD4+ T cells using AllPrep DNA/RNA Mini kit according to the manufacturer's specifications (Qiagen, Denmark). Cell equivalents were based on RNAseP amplification. The following primers were used to target human RNAseP 5′-[…]-3′ (forward) (SEQ ID NO: 5) and 5′-[…]-3′ (reverse) (SEQ ID NO: 6). Amplification reactions were carried out in duplicates with a primer concentration of 0.5 μM, 10 μL SsoFast™ EvaGreen® Supermix and 1 μL 100-fold diluted DNA as template in 20 μl total volume.
Using the RNAsePgenome copy number, sample DNA was diluted to 50,000 cell equivalents per PCR reaction. To determine the frequency of CD4+ T cells carrying HIV DNA, we prepared a standard curve obtained by serially diluted DNA from 8E5 cells (carrying one integrated provirus per genome) combined with DNA from HIV-negative PBMCs (305, 153, 76, 38, 19, 9 HIV DNA copies and 100,000 HIV negative cell equivalents per well). The following primers were used to target HIV-DNA: 5′-[…]-3′ (forward) (SEQ ID NO: 7) and 5′-[…]-3′ (reverse) (SEQ ID NO: 8).
The amplification reaction was carried out in triplicates with a primer concentration of 0.5 μM, 10 μL SsoFast™ EvaGreen® Supermix and 100,000 genomes as template in 20 μl total volume on a Bio-Rad CFX96™ Real-time PCR Platform. PCR conditions were as follows: A denaturation step at 95° C. followed by 45 cycles of 10 seconds at 95° C. and 25 seconds at 62° C. Subsequently a melt curve was obtained heating from 65° C. to 95° C. with a 0.5° C. increment for 5 seconds. Cycle cut off was set at 39 cycles. Amplification products were verified by dissociaton curve. Copy number of HIV DNA per 1×10^6 CD4+ T cells was calculated from the real-time PCR results.
From the HIV DNA standard curve we set a lower limit of quantification of 12 copies HIV DNA/10^6 CD4+ T cells.
Samples were drawn from two patients at Baseline (prior to initiation of panobinostat treatment) and after 4 weeks and 8 weeks cyclic panobinostat treatment 20 mg TIW every other week.

[7] = 20 mg oral; cited from earlier work
latent viral reservoir = details: clinical study; effect could not be sustained in further studies; cited from earlier work

CCN(CC)Cc1ccc2cc(COC(=O)Nc3ccc(C(=O)NO)cc3)ccc2c1 [ITF2357]
surface expression of CCR5 (CCR5): decreased surface expression
surface expression of CXCR4 (CXCR4): decreased surface expression
fold increase in median p24 levels with reference to untreated cultures ([1]; 125 nM): 6.2 fold
fold increase in median p24 levels with reference to untreated cultures ([1]; 250 nM): 18.5 fold
fold increase in median p24 levels with reference to untreated cultures ([2]; 125 nM): 3.2 fold
fold increase in median p24 levels with reference to untreated cultures ([2]; 250 nM): 9.2 fold

Cc1[nH]c2ccccc2c1CCNCc1ccc(/C=C/C(=O)NO)cc1 [LBH589, N-Hydroxy-3-[4-[2-(2-methyl-1H-indol-3-yl)ethylaminomethyl]phenyl]-2(E)-propenamide]
rank order of induced HIV-1 expression ([3]; direct comparison at the concentration obtained with clinical use): LBH589>ITF2357 and PXD101>SAHA
rank order of potency when stimulating HIV-1 expression ([3]; latently infected cell lines): LBH589>ITF2357 and PXD101>SAHA>VPA
concentration range in which HIV-1 expression is induced ([3]; latently infected cell lines U1 and ACH2): 8 to 32 nM
concentration at which induction of CD69 expression occurred, compared with other HDACi ([4]; CD4+ T-cells): much lower concentrations of LBH589 than ITF2357, PXD101, and SAHA
proportion of primary T-cells expressing the early activation marker CD69 ([4]; PBMCs from healthy donors, increasing concentrations (2-31 nM), compared to untreated cells): increased
CD69 expression in memory T-cell subsets ([4]; central memory T-cells): highest levels
effect on CD4+ T cell counts in blood (CD4+ T cells): no immune deterioration
cytotoxicity (Cytotoxicity of LBH589): No cytotoxicity above background
cell-associated unspliced Gag HIV RNA ([5]; patient A, first off/on cycle analyzed, off treatment): 178 Gag HIV RNA copies
cell-associated unspliced Gag HIV RNA ([5]; patient A, first off/on cycle analyzed, on treatment): 323 Gag HIV RNA copies
cell-associated unspliced Gag HIV RNA ([5]; patient A, second off/on cycle analyzed, off treatment): 57 Gag HIV RNA copies
cell-associated unspliced Gag HIV RNA ([5]; patient A, second off/on cycle analyzed, on treatment): 362 Gag HIV RNA copies
cell-associated unspliced Gag HIV RNA ([5]; patient B, first off/on cycle analyzed, off treatment): 504 Gag HIV RNA copies
cell-associated unspliced Gag HIV RNA ([5]; patient B, first off/on cycle analyzed, on treatment): 841 Gag HIV RNA copies
cell-associated unspliced Gag HIV RNA ([5]; patient B, second off/on cycle analyzed, off treatment): 892 Gag HIV RNA copies
cell-associated unspliced Gag HIV RNA ([5]; patient B, second off/on cycle analyzed, on treatment): 1196 Gag HIV RNA copies
average increase of histone H3 acetylation from baseline (histone H3 acetylation; day 4, eight patients, PBMC's, panobinostat 20 mg TIW every other week): 267%
levels of histone acetylation (histone H3 acetylation; off-treatment weeks): dropped to near baseline levels
proviral DNA level ([6]; patient A, end of treatment (8 weeks), baseline 46 copies/10^6 CD4+ T cell): remained low
proviral DNA level ([6]; patient A, first two treatment cycles (4 weeks), 20 mg TIW every other week, baseline 46 copies/10^6 CD4+ T cell, lower limit of quantification 12 copies): dropped below detection
proviral DNA level ([6]; patient B, after 4 weeks, baseline 173 copies/10^6 CD4+ T cells): 125 copies/10^6 CD4+ T cell
proviral DNA level ([6]; patient B, end of treatment (8 weeks), baseline 173 copies/10^6 CD4+ T cells, lower limit of quantification 12 copies): undetectable
maximal plasma concentration [7]: approximately 60 nM

O=C(CCCCCCC(=O)Nc1ccccc1)NO [SAHA, suberoylanilide hydroxamic acid]
fold increase in median p24 levels with reference to untreated cultures ([1]; 125 nM): 1.4 fold
fold increase in median p24 levels with reference to untreated cultures ([1]; 250 nM): 2.4 fold
fold increase in median p24 levels with reference to untreated cultures ([1]; 500 nM): 6.9 fold
fold increase in median p24 levels with reference to untreated cultures ([2]; 125 nM): 1.0 fold
fold increase in median p24 levels with reference to untreated cultures ([2]; 250 nM): 1.5 fold
fold increase in median p24 levels with reference to untreated cultures ([2]; 500 nM): 3.1 fold

O=C(/C=C/c1cccc(S(=O)(=O)Nc2ccccc2)c1)NO [PXD101]
fold increase in median p24 levels with reference to untreated cultures ([1]; 125 nM): 5.8 fold
fold increase in median p24 levels with reference to untreated cultures ([1]; 250 nM): 18.3 fold
fold increase in median p24 levels with reference to untreated cultures ([2]; 125 nM): 2.4 fold
fold increase in median p24 levels with reference to untreated cultures ([2]; 250 nM): 7.4 fold

CCCC(CCC)C(=O)O [VPA, valproic acid]
patients in whom depletion of the latent viral reservoir was seen (latent viral reservoir): 3 of 4
fold increase in median p24 levels with reference to untreated cultures ([1]; 0.25 mM): 2.1 fold
fold increase in median p24 levels with reference to untreated cultures ([1]; 0.5 mM): 7.3 fold
fold increase in median p24 levels with reference to untreated cultures ([2]; 0.25 mM): 1.4 fold
fold increase in median p24 levels with reference to untreated cultures ([2]; 0.5 mM): 2.8 fold
